Columns and labels:
[1] = lower threshold = stronger coolant; data of U.S. Pat. Nos. 4,060,091 etc.; cited from earlier work
[2] = cited from earlier work; for sensitivity threshold (corrected data): J. Soc. Cosmet. Chem., 1978, vol. 29, pp. 185–200
[3] = visual and organoleptic test of aqueous solution of the product; format: in vivo; details: 25 ppm aqueous solution
Text: (§1) Further, the aqueous solutions of products for organoleptic tests were obtained by dissolving appropriate amounts of the products in dipropylene glycol DPG and adding the solution in DPG to an appropriate amount of water.

[4] = comparison of cooling strength to WS-3 in oral application; format: in vivo; details: for cooling strength relative to WS-3 (times stronger): aqueous solutions, vs 10 ppm WS-3
Description: as §1
A comparison basis aqueous solution of WS-3 (compound 5) was prepared containing 10 ppm concentration of WS-3.
Aqueous solutions were prepared containing various concentrations of the purified compound 10: 2 ppm, 3 ppm, 4 ppm, 5 ppm, and higher. These solutions were tested in oral application in comparison to the basis solution of 10 ppm of WS-3.
Aqueous solutions were prepared containing various concentrations of the purified compound 10: 2 ppm, 3 ppm, 3.5 ppm, 4 ppm, 5 ppm, and higher. These solutions were tested in oral application in comparison to the basis solution of 10 ppm of WS-3.

[5] = sensitivity threshold (cooling strength) of N-monosubstituted p-menthane-3-carboxamides, prior-art patents; format: in vivo; details: from patent thresholds 0.2 vs 0.3 μg
Text: With specific reference to structure 6, substituent “X” is commonly selected from the lower linear or branched alkyl substituents, functionally substituted alkyl substituents, or aryl substituents. To that end, U.S. Pat. Nos. 4,060,091; 4,136,163; 4,150,052; 4,178,459; 4,193,936; and 4,226,988, the entire disclosures of which are hereby incorporated by reference for all purposes, give a comparison of cooling strengths of certain N-monosubstituted p-menthane-3-carboxamides numerically expressed as sensitivity thresholds in μg, wherein a lower threshold value correlates to a stronger coolant effect. Of the compared compounds, the only commercially used N-monosubstituted p-menthane-3-carboxamide compound is the WS-3 coolant, having a sensitivity threshold of 0.3 μg.

[6] = volatility; format: physicochemical; details: compared with menthol

Compound | sensitivity threshold [1] [µg] | tingling/cooling sensation [3] | further results
CCNC(=O)C1C[C@H](C)CCC1C(C)C (stereo in doubt) [WS-3, N-ethyl-p-menthane-3-carboxamide, reference compound] | 0.3 |  | sensitivity threshold (corrected data) [2]: 0.2 µg
CCOC(=O)CNC(=O)C1CC(C)CCC1C(C)C (stereo not drawn) [Inventive Example 1, ethyl ester of N-[[5-methyl-2-(1-methylethyl)cyclohexyl]carbonyl]glycine] |  | very strong tingling/cooling sensation | cooling effect compared to basis solution of 10 ppm WS-3 ([4]; 4 ppm aqueous solution): approximately equal cooling effect; cooling effect compared to basis solution of 10 ppm WS-3 ([4]; 5 ppm aqueous solution): stronger and longer lasting cooling effect; cooling strength relative to WS-3 (times stronger) [4]: approximately 2.5 times
CCOC(=O)CNC(=O)C1CC(C)CCC1C(C)C (stereo not drawn) [Inventive Example 4, ethyl ester of N-[[5-methyl-2-(1-methylethyl)cyclohexyl]carbonyl]glycine] |  | very strong tingling/cooling sensation | 
Cc1ccc(NC(=O)C2CC(C)CCC2C(C)C)cc1C (stereo not drawn) [compound 7] | 0.1 |  | 
CCOC(=O)CNC(=O)C1CC(C)CCC1C(C)C (stereo not drawn) [compound 10, ethyl ester of N-[[5-methyl-2-(1-methylethyl)cyclohexyl]carbonyl]glycine] | 0.2 |  | cooling strength relative to WS-3 (times stronger) [5]: 1.5 times; volatility [6]: much lower volatility than menthol; sensitivity threshold (corrected data) [2]: 0.13 µg; cooling strength relative to compound 5 (times stronger) ([2]; from corrected thresholds 0.13 vs 0.2 μg): approximately 1.5 times
CCOC(=O)CNC(=O)C1CC(C)CCC1C(C)C (stereo not drawn) [Inventive Example 3, ethyl ester of N-[[5-methyl-2-(1-methylethyl)cyclohexyl]carbonyl]glycine] |  |  | tingling/cooling sensation ([3]; listed as Inventive Example 3 (B)): extremely strong and pleasant tingling/cooling sensation; cooling effect compared to basis solution of 10 ppm WS-3 ([4]; 3.5 ppm aqueous solution): approximately equal cooling effect; cooling effect compared to basis solution of 10 ppm WS-3 ([4]; 4 ppm aqueous solution): stronger and longer lasting cooling effect; cooling strength relative to WS-3 (times stronger) [4]: approximately 3 times
CCOC(=O)CNC(=O)C1CC(C)CCC1C(C)C (stereo not drawn) [Comparative Synthetic and Organoleptic Example 1] [ethyl ester of N-[[5-methyl-2-(1-methylethyl)cyclohexyl]carbonyl]glycine, reference compound] |  | noticeable tingling/cooling sensation | 
CCOC(=O)CNC(=O)C1CC(C)CCC1C(C)C (stereo not drawn) [Inventive Example 5, ethyl ester of N-[[5-methyl-2-(1-methylethyl)cyclohexyl]carbonyl]glycine] |  | very strong tingling/cooling sensation | 
CCOC(=O)CNC(=O)C1CC(C)CCC1C(C)C (stereo not drawn) [Inventive Example 3 (A), ethyl ester of N-[[5-methyl-2-(1-methylethyl)cyclohexyl]carbonyl]glycine] |  | very strong tingling/cooling sensation | 
CCOC(=O)CNC(=O)C1CC(C)CCC1C(C)C (stereo not drawn) [Comparative Synthetic and Organoleptic Example 2 after the a] [ethyl ester of N-[[5-methyl-2-(1-methylethyl)cyclohexyl]carbonyl]glycine, reference compound] |  | strong tingling/cooling sensation | 
CCOC(=O)CNC(=O)C1CC(C)CCC1C(C)C (stereo not drawn) [Comparative Synthetic and Organoleptic Example 2] [ethyl ester of N-[[5-methyl-2-(1-methylethyl)cyclohexyl]carbonyl]glycine, reference compound] |  | strong tingling/cooling sensation | 
Cc1ccc(NC(=O)C2CC(C)CCC2C(C)C)cc1O (stereo not drawn) [compound 8] | 0.1 |  | 
CCOC(=O)CNC(=O)C1CC(C)CCC1C(C)C (stereo not drawn) [Inventive Example 2, ethyl ester of N-[[5-methyl-2-(1-methylethyl)cyclohexyl]carbonyl]glycine] |  | very strong tingling/cooling sensation | 

Reference: patent US7189760B2, “Physiological cooling compositions containing highly purified ethyl ester of N-[[5-methyl-2-(1-methylethyl) cyclohexyl] carbonyl]glycine” (Millennium Specialty Chemicals, priority 2004, dated 2007)
